Data: patent publication US20250282760A1 (Merck Sharp & Dohme LLC, priority 2022, published 2025)
pIC50: −log10 of the molar value.

Target: T1, human OX2R (Homo sapiens, UniProt O43614)
T1 construct: expressed in transfected cells; host or cells: Chinese hamster ovary (CHO) cells, kept under G418 selection
T1 sequence (O43614 1-444): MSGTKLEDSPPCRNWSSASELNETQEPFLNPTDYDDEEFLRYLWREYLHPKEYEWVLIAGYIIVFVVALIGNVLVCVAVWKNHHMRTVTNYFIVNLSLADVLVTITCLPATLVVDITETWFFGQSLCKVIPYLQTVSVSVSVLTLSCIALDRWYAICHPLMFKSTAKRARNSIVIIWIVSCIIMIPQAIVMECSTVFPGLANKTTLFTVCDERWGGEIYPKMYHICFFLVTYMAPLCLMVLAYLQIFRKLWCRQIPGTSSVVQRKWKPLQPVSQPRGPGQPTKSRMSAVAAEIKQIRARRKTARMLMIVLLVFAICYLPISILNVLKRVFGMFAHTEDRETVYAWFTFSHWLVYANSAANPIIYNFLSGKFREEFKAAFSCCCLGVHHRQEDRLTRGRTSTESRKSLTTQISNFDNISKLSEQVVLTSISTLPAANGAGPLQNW
Test: IPOne (IP-1 accumulation) assay of orexin receptor agonist activity in CHO cells expressing human OX2R
Format: cell-based
Settings: for pIC50: CHO cells expressing human OX2R, IP-One assay, 2 hours incubation, four parameter logistic fit, read-out: hOX2R_IP IC50; for Emax: CHO, percent activity at maximum tested concentration, relative to reference compound at 1 uM (100% activity) for human OX2R
Excerpt: The utility of the compounds in accordance with the present invention as orexin receptor OX1R and/or OX2R agonists may be readily determined without undue experimentation by methodology well known in the art. Both the OX1R and/or OX2R G-coupled protein receptors (GPCRs) couple through the Gαq signaling pathway, which ultimately promotes calcium mobilization via inositol triphosphate (IP3) production. […] The utility of the compounds in accordance with the present invention as orexin receptor OX1R and/or OX2R agonists may be determined utilizing this assay.
In a typical experiment, the OX1 and OX2 receptor agonist activity is determined in accordance with the following general experimental method. Chinese hamster ovary (CHO) cells expressing human OX1R and/or the human OX2R were grown in Iscove's modified DMEM containing glutaMAX™, 1% G418, 100 U/mL penicillin, 100 μg/mL streptomycin and 10% heat-inactivated qualified fetal bovine serum (FBS). […] During this incubation, IP-one detection reagents were prepared (38:1:1 lysis buffer:D2:AB-cryptate reagents).
For each compound, data were fit to a four parameter logistic fit (ActivityBase software) and the EC50 was reported as the inflection point of the resulting curve. Percent effect for each test compound was determined as the percentage of sample raw value/mean max effect, where the mean max effect was derived from the mean raw value of 32 control wells per assay plate (using Orexin A (cat #003-30) at 1 μM for human OX1R and a reference compound at 1 uM with 100% activity previously established by comparison to Orexin A for human OX2R). The intrinsic orexin receptor agonist activity of a compound which may be used in the present invention may be determined by these assays.

SMILES | pIC50 | Emax
O=C(NCc1ccc2ccccc2c1)C1CN(S(=O)(=O)c2ccccc2)CCN1C(=O)c1nccs1 (centres unmarked) [Example 10-7, N-(naphthalen-2-ylmethyl)-4-(phenylsulfonyl)-1-(thiazole-2-carbonyl)piperazine-2-carboxamide] | 5.73 | 98.9%
O=C(NCc1ccc2ccccc2c1)C1CN(S(=O)(=O)c2ccccc2Cl)CCN1C(=O)c1cccs1 (centres unmarked) [Example 89-4, 4-[(2-chlorophenyl)sulfonyl]-N-[(naphthalen-2-yl)methyl]-1-(thiophene-2-carbonyl)piperazine-2-carboxamide] | 5.28 | 75.5%
CC(C)C(=O)N1[C@H](C)CN(S(=O)(=O)c2ccccc2)C[C@@H]1C(=O)NCc1ccc(-c2ccccc2)cc1 (relative stereo) [Example 19-3, cis-N-([1,1′-biphenyl]-4-ylmethyl)-1-isobutyryl-6-methyl-4-(phenylsulfonyl)piperazine-2-carboxamide] | 7.16 | 87.1%
N#Cc1ccc(S(=O)(=O)N2CCN(C(=O)c3cccs3)C(C(=O)NCc3ccc4ccccc4c3)C2)cc1 (centres unmarked) [Example 89-5, 4-[(4-cyanophenyl)sulfonyl]-N-[(naphthalen-2-yl)methyl]-1-(thiophene-2-carbonyl)piperazine-2-carboxamide] | 4.00 | 23.1%
CC(C)C(=O)N1[C@H](C)CN(S(=O)(=O)c2ccccc2)C[C@@H]1C(=O)NCc1cc(F)c(-c2ccco2)c(F)c1 (relative stereo) [Example 47-3, cis-N-(3,5-difluoro-4-(furan-2-yl)benzyl)-1-isobutyryl-6-methyl-4-(phenylsulfonyl)piperazine-2-carboxamide] | 7.53 | 99.7%
CCCC(=O)N1CCN(S(=O)(=O)c2ccccc2)CC1C(=O)NCc1ccc2ccccc2c1 (centres unmarked) [Example 10-3, 1-butyryl-N-(naphthalen-2-ylmethyl)-4-(phenylsulfonyl)piperazine-2-carboxamide] | 4.91 | 87.8%
O=C(NCc1ccc2ccccc2c1)C1CN(S(=O)(=O)c2cccc(F)c2)CCN1C(=O)c1cccs1 (centres unmarked) [Example 89-10, 4-[(3-fluorophenyl)sulfonyl]-N-[(naphthalen-2-yl)methyl]-1-(thiophene-2-carbonyl)piperazine-2-carboxamide] | 5.28 | 83.6%
CC(C)C(=O)N1[C@H](C)CN(S(=O)(=O)c2ccccc2)C[C@@H]1C(=O)NCc1ccc2ccccc2c1 (relative stereo) [Example 19-1, cis-1-isobutyryl-6-methyl-N-(naphthalen-2-ylmethyl)-4-(phenylsulfonyl)piperazine-2-carboxamide] | 6.61 | 100%
CC(C)C(=O)N1[C@H](C)CN(S(=O)(=O)c2ccccc2)C[C@@H]1C(=O)NCc1ccc(-c2ccccn2)cc1 (relative stereo) [Example 42-1, cis-1-isobutyryl-6-methyl-4-(phenylsulfonyl)-N-(4-(pyridin-2-yl)benzyl)piperazine-2-carboxamide] | 6.92 | 100%
Cc1ccccc1C(=O)N1CCN(S(=O)(=O)c2ccccc2)CC1C(=O)NCc1ccc2ccccc2c1 (centres unmarked) [Example 10-11, 1-(2-methylbenzoyl)-N-(naphthalen-2-ylmethyl)-4-(phenylsulfonyl)piperazine-2-carboxamide] | 4.00 | 19.4%
CC(C)C(=O)N1[C@H](C)CN(S(=O)(=O)c2ccccc2)C[C@@H]1C(=O)NCc1ccc(OC(C)(F)F)cc1 (relative stereo) [Example 19-4, cis-N-(4-(1,1-difluoroethoxy)benzyl)-1-isobutyryl-6-methyl-4-(phenylsulfonyl)piperazine-2-carboxamide] | 7.15 | 101%
CC[C@@H]1CN(S(=O)(=O)c2ccccc2)C[C@H](C(=O)NCc2ccc(-c3ccco3)cc2)N1C(=O)C(C)C (relative stereo) [Example 71, cis-6-ethyl-N-(4-(furan-2-yl)benzyl)-1-isobutyryl-4-(phenylsulfonyl)piperazine-2-carboxamide] | 6.61 | 100%
O=C(NCc1ccc2ccccc2c1)C1CN(S(=O)(=O)c2ccccc2F)CCN1C(=O)c1cccs1 (centres unmarked) [Example 89-11, 4-[(2-fluorophenyl)sulfonyl]-N-[(naphthalen-2-yl)methyl]-1-(thiophene-2-carbonyl)piperazine-2-carboxamide] | 5.30 | 94.5%
CC(C)C(=O)N1CCN(S(=O)(=O)c2ccccc2)CC1C(=O)NCc1ccc2ccccc2c1 (centres unmarked) [Example 10-4, 1-isobutyryl-N-(naphthalen-2-ylmethyl)-4-(phenylsulfonyl)piperazine-2-carboxamide] | 5.58 | 98.7%
Cc1cc(-c2ccco2)c(F)cc1CNC(=O)[C@@H]1CN(S(=O)(=O)c2ccccc2)C[C@H](C)N1C(=O)C(C)C (relative stereo) [Example 47-5, cis-N-(5-fluoro-4-(furan-2-yl)-2-methylbenzyl)-1-isobutyryl-6-methyl-4-(phenylsulfonyl) piperazine-2-carboxamide] | 7.83 | 106%
CC(C)C(=O)N1C(C)CN(S(=O)(=O)c2ccccc2)CC1C(=O)NCc1ccc(-c2ccncc2)cc1 (centres unmarked) [Example 42-3, 1-isobutyryl-6-methyl-4-(phenylsulfonyl)-N-(4-(pyridin-4-yl)benzyl)piperazine-2-carboxamide] | 5.99 | 4.39%
O=C(NCc1ccc2ccccc2c1)C1CN(S(=O)(=O)c2ccccc2)CCN1C(=O)c1cccs1 (centres unmarked) [Example 6, N-(naphthalen-2-ylmethyl)-4-(phenylsulfonyl)-1-(thiophene-2-carbonyl)piperazine-2-carboxamide] | 5.65 | 94.3%
O=C(NCc1ccc2ccccc2c1)C1CN(S(=O)(=O)c2ccc(F)cc2)CCN1C(=O)c1cccs1 (centres unmarked) [Example 89-9, 4-[(4-fluorophenyl)sulfonyl]-N-[(naphthalen-2-yl)methyl]-1-(thiophene-2-carbonyl)piperazine-2-carboxamide] | 5.26 | 89.6%
Cc1c(CNC(=O)[C@H]2CN(S(=O)(=O)c3ccccc3)C[C@@H](C)N2C(=O)C(C)C)ccc(-c2ccco2)c1F (relative stereo) [Example 51, cis-N-(3-fluoro-4-(furan-2-yl)-2-methylbenzyl)-1-isobutyryl-6-methyl-4-(phenylsulfonyl)piperazine-2-carboxamide] | 7.07 | 99.8%
CC(=O)N1CCN(S(=O)(=O)c2ccccc2)CC1C(=O)NCc1ccc2ccccc2c1 (centres unmarked) [Example 11, 1-acetyl-N-(naphthalen-2-ylmethyl)-4-(phenylsulfonyl)piperazine-2-carboxamide] | 4.46 | 81.6%
CCCc1ccc(CNC(=O)[C@H]2CN(S(=O)(=O)c3ccccc3)C[C@@H](C)N2C(=O)C(C)C)cc1 (relative stereo) [Example 19-10, cis-1-isobutyryl-6-methyl-4-(phenylsulfonyl)-N-(4-propylbenzyl)piperazine-2-carboxamide] | 6.80 | 93.8%
CCC(=O)N1CCN(S(=O)(=O)c2ccccc2)CC1C(=O)NCc1ccc2ccccc2c1 (centres unmarked) [Example 10-2, N-(naphthalen-2-ylmethyl)-4-(phenylsulfonyl)-1-propionylpiperazine-2-carboxamide] | 5.05 | 97.4%
CC(C)C(=O)N1[C@H](C)CN(S(=O)(=O)c2ccccc2)C[C@@H]1C(=O)NCc1ccc(-c2ncccn2)cc1 (relative stereo) [Example 19-5, cis-1-isobutyryl-6-methyl-4-(phenylsulfonyl)-N-(4-(pyrimidin-2-yl)benzyl)piperazine-2-carboxamide] | 7.10 | 101%
CC(C)C(=O)N1[C@H](C)CN(S(=O)(=O)c2ccccc2)C[C@@H]1C(=O)NCc1ccc(-c2ccco2)c(C#N)c1 (relative stereo) [Example 47-2, cis-N-(3-cyano-4-(furan-2-yl)benzyl)-1-isobutyryl-6-methyl-4-(phenylsulfonyl)piperazine-2-carboxamide] | 6.84 | 98.3%
Cc1cc(-c2ccco2)cnc1CNC(=O)[C@H]1CN(S(=O)(=O)c2ccccc2)C[C@@H](C)N1C(=O)C(C)C (relative stereo) [Example 55, cis-N-((5-(furan-2-yl)-3-methylpyridin-2-yl)methyl)-1-isobutyryl-6-methyl-4-(phenylsulfonyl)piperazine-2-carboxamide] | 5.53 | 93.5%
